Assay results reported in US8586550B2, “Thiazole derivatives as SGLT2 inhibitors and pharmaceutical composition comprising same” (Green Cross Corporation, priority 2010, dated 2013).

Biological target: T1, Human SGLT2 (hSGLT2) (Homo sapiens, UniProt P31639)
T1 construct: expressed in transfected cells
T1 sequence (P31639 1-672): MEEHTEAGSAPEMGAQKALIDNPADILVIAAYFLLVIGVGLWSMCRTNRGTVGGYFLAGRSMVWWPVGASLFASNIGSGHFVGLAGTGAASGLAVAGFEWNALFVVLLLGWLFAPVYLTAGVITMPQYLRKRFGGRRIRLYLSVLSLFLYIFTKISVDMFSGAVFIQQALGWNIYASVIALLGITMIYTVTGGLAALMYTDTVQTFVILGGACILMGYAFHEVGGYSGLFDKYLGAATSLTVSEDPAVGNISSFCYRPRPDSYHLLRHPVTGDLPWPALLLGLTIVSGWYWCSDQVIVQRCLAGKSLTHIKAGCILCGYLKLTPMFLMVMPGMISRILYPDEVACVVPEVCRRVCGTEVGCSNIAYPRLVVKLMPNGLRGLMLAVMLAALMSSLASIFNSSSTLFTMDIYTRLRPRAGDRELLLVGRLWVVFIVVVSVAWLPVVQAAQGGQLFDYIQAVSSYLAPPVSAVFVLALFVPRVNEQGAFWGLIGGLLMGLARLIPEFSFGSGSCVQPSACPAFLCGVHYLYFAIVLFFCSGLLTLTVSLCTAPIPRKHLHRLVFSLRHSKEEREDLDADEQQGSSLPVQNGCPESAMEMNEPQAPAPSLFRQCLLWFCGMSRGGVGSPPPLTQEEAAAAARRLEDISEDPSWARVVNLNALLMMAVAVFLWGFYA
Assay: Sodium-dependent glucose transport (14C-AMG uptake) assay in CHO cells stably expressing hSGLT2
Type: cell-based
Details: CHO cells expressing hSGLT2, 14C-AMG uptake, 37° C. for 2 h; single determinations; read-out: hSGLT2 Inhibitory Activity IC50
Source text: Cloning and Cell Line Construction for Human SGLT2
Human SGLT2 (hSGLT2) gene was amplified by PCR from cDNA-Human Adult Normal Tissue Kidney (Invitrogen). The hSGLT2 sequence was cloned into pcDNA3.1(+) for mammalian expression and were stably transfected into chinese hamster ovary (CHO) cells. SGLT2-expressing clones were selected based on resistance to G418 antibiotic (Geneticin) and activity in the ^14C-α-methyl-D-glucopyranoside (^14C-AMG) uptake assay.
Inhibitory Effects on Human SGLT2 Activities
For sodium-dependent glucose transport assay, cells expressing hSGLT2 were seeded into a 96-well culture plate at a density of 5×10^4 cells/well in RPMI medium 1640 containing 10% fetal bovine serum. The cells were used 1 day after plating. They were incubated in pretreatment buffer (10 mM HEPES, 5 mM Tris, 140 mM choline chloride, 2 mM KCl, 1 mM CaCl2, and 1 mM MgCl2, pH 7.4) at 37° C. for 10 min. They were then incubated in uptake buffer (10 mM HEPES, 5 mM Tris, 140 mM NaCl, 2 mM KCl, 1 mM CaCl2, 1 mM MgCl2, and 1 mM ^14C-nonlabeled AMG, pH 7.4) containing ^14C-labeled (8 μM) and inhibitor or dimethylsulfoxide (DMSO) vehicle at 37° C. for 2 h. Cells were washed twice with washing buffer (pretreatment buffer containing 10 mM AMG at room temperature) and then the radioactivity was measured using a liquid scintillation counter. IC50 was determined by nonlinear regression analysis using GraphPad PRISM [Katsuno, K. et al. J. Pharmacol. Exp. Ther. 2007, 320, 323-330; Han, S. et al. Deabetes, 2008, 57, 1723-1729].

| SMILES | IC50 |
| --- | --- |
| CCCCCOc1cnc(Cc2cc([C@@H]3O[C@H](CO)[C@@H](O)[C@H](O)[C@H]3O)ccc2Cl)s1 [Example 23, (2S,3R,4R,5S,6R)-2-(4-Chloro-3-((5-(pentyloxy)thiazol-2-yl)methyl)phenyl)-6-(hydroxymethyl)-tetrahydro-2H-pyran-3,4,5-triol] | 8.21 nM |
| CCSc1cnc(Cc2cc([C@@H]3O[C@H](CO)[C@@H](O)[C@H](O)[C@H]3O)ccc2Cl)s1 [Example 24, (2S,3R,4R,5S,6R)-2-(4-Chloro-3-((5-(ethylthio)thiazol-2-yl)methyl)phenyl)-6-(hydroxymethyl)-tetrahydro-2H-pyran-3,4,5-triol] | 30.9 nM |
| CCCSc1cnc(Cc2cc([C@@H]3O[C@H](CO)[C@@H](O)[C@H](O)[C@H]3O)ccc2Cl)s1 [Example 25, (2S,3R,4R,5S,6R)-2-(4-Chloro-3-((5-(propylthio)thiazol-2-yl)methyl)phenyl)-6-(hydroxymethyl)-tetrahydro-2H-pyran-3,4,5-triol] | 56.4 nM |
| CCCCSc1cnc(Cc2cc([C@@H]3O[C@H](CO)[C@@H](O)[C@H](O)[C@H]3O)ccc2Cl)s1 [Example 26, (2S,3R,4R,5S,6R)-2-(3-((5-(Butylthio)thiazol-2-yl)methyl)-4-chlorophenyl)-6-(hydroxymethyl)-tetrahydro-2H-pyran-3,4,5-triol] | 58.7 nM |
| CCCCCSc1cnc(Cc2cc([C@@H]3O[C@H](CO)[C@@H](O)[C@H](O)[C@H]3O)ccc2Cl)s1 [Example 27, (2S,3R,4R,5S,6R)-2-(4-Chloro-3-((5-(pentylthio)thiazol-2-yl)methyl)phenyl)-6-(hydroxymethyl)-tetrahydro-2H-pyran-3,4,5-triol] | 18.9 nM |
| OC[C@H]1O[C@@H](c2ccc(Cl)c(C3(c4ncc(-c5ccoc5)s4)CC3)c2)[C@H](O)[C@@H](O)[C@@H]1O [Example 28, (2S,3R,4R,5S,6R)-2-(4-Chloro-3-(1-(5-(furan-3-yl)thiazol-2-yl)cyclopropyl)phenyl)-6-(hydroxymethyl)tetrahydro-2H-pyran-3,4,5-triol] | 110 nM |
| OC[C@H]1O[C@@H](c2ccc(Cl)c(C3(c4ncc(-c5cccs5)s4)CC3)c2)[C@H](O)[C@@H](O)[C@@H]1O [Example 29, (2S,3R,4R,5S,6R)-2-(4-Chloro-3-(1-(5-(thiophen-2-yl)thiazol-2-yl)cyclopropyl)phenyl)-6-(hydroxymethyl)tetrahydro-2H-pyran-3,4,5-triol] | 38.6 nM |
| Cc1ccc([C@@H]2O[C@H](CO)[C@@H](O)[C@H](O)[C@H]2O)cc1Cc1ncc(-c2ccco2)s1 [Example 30, (2S,3R,4R,5S,6R)-2-(3-((5-(Furan-2-yl)thiazol-2-yl)methyl)-4-methylphenyl)-6-(hydroxymethyl)tetrahydro-2H-pyran-3,4,5-triol] | 1.43 nM |
| Cc1ccc([C@@H]2O[C@H](CO)[C@@H](O)[C@H](O)[C@H]2O)cc1Cc1ncc(-c2cccs2)s1 [Example 32, (2R,3S,4R,5R,6S)-2-(Hydroxymethyl)-6-(4-methyl-3-((5-(thiophen-2-yl)thiazol-2-yl)methyl)phenyl)tetrahydro-2H-pyran-3,4,5-triol] | 3.8 nM |
| Cc1ccc([C@@H]2O[C@H](CO)[C@@H](O)[C@H](O)[C@H]2O)cc1Cc1ncc(-c2ccsc2)s1 [Example 33, (2R,3S,4R,5R,6S)-2-(Hydroxymethyl)-6-(4-methyl-3-((5-(thiophen-3-yl)thiazol-2-yl)methyl)phenyl)tetrahydro-2H-pyran-3,4,5-triol] | 1.28 nM |
| Cc1ccc([C@@H]2O[C@H](CO)[C@@H](O)[C@H](O)[C@H]2O)cc1Cc1ncc(-c2nccs2)s1 [Example 34, (2S,3R,4R,5S,6R)-2-(3-(2,5′-Bithiazol-2′-ylmethyl)-4-methylphenyl)-6-(hydroxymethyl)tetrahydro-2H-pyran-3,4,5-triol] | 5.69 nM |
| Cc1ccc([C@@H]2O[C@H](CO)[C@@H](O)[C@H](O)[C@H]2O)cc1Cc1ncc(-c2ccccc2)s1 [Example 35, (2R,3S,4R,5R,6S)-2-(Hydroxymethyl)-6-(4-methyl-3-((5-phenylthiazol-2-yl)methyl)phenyl)tetrahydro-2H-pyran-3,4,5-triol] | 4.17 nM |
| Cc1ccc(-c2cnc(Cc3cc([C@@H]4O[C@H](CO)[C@@H](O)[C@H](O)[C@H]4O)ccc3C)s2)cc1 [Example 36, (2R,3S,4R,5R,6S)-2-(Hydroxymethyl)-6-(4-methyl-3-((5-p-tolylthiazol-2-yl)methyl)phenyl)tetrahydro-2H-pyran-3,4,5-triol] | 21.5 nM |
| Cc1ccc([C@@H]2O[C@H](CO)[C@@H](O)[C@H](O)[C@H]2O)cc1Cc1ncc(-c2ccc(F)cc2)s1 [Example 37, (2S,3R,4R,5S,6R)-2-(3-((5-(4-Fluorophenyl)thiazol-2-yl)methyl)-4-methylphenyl)-6-(hydroxymethyl)tetrahydro-2H-pyran-3,4,5-triol] | 9.8 nM |
| Cc1ccc([C@@H]2O[C@H](CO)[C@@H](O)[C@H](O)[C@H]2O)cc1Cc1ncc(-c2ccc(Cl)cc2)s1 [Example 38, (2S,3R,4R,5S,6R)-2-(3-((5-(4-Chlorophenyl)thiazol-2-yl)methyl)-4-methylphenyl)-6-(hydroxymethyl)tetrahydro-2H-pyran-3,4,5-triol] | 25.6 nM |
| Cc1ccc([C@@H]2O[C@H](CO)[C@@H](O)[C@H](O)[C@H]2O)cc1Cc1ncc(Cc2ccccc2)s1 [Example 39, (2S,3R,4R,5S,6R)-2-(3-((5-Benzylthiazol-2-yl)methyl)-4-methylphenyl)-6-(hydroxymethyl)tetrahydro-2H-pyran-3,4,5-triol] | 176 nM |
| OC[C@H]1O[C@@H](c2ccc(F)c(Cc3ncc(-c4ccco4)s3)c2)[C@H](O)[C@@H](O)[C@@H]1O [Example 40, (2S,3R,4R,5S,6R)-2-(4-Fluoro-3-((5-(furan-2-yl)thiazol-2-yl)methyl)phenyl)-6-(hydroxymethyl)tetrahydro-2H-pyran-3,4,5-triol] | 6.11 nM |
| OC[C@H]1O[C@@H](c2ccc(F)c(Cc3ncc(-c4ccoc4)s3)c2)[C@H](O)[C@@H](O)[C@@H]1O [Example 41, (2S,3R,4R,5S,6R)-2-(4-Fluoro-3-((5-(furan-3-yl)thiazol-2-yl)methyl)phenyl)-6-(hydroxymethyl)tetrahydro-2H-pyran-3,4,5-triol] | 30.5 nM |
| OC[C@H]1O[C@@H](c2ccc(F)c(Cc3ncc(-c4cccs4)s3)c2)[C@H](O)[C@@H](O)[C@@H]1O [Example 42, (2S,3R,4R,5S,6R)-2-(4-Fluoro-3-((5-(thiophen-2-yl)thiazol-2-yl)methyl)phenyl)-6-(hydroxymethyl)tetrahydro-2H-pyran-3,4,5-triol] | 25.4 nM |
| OC[C@H]1O[C@@H](c2ccc(F)c(Cc3ncc(-c4ccccc4)s3)c2)[C@H](O)[C@@H](O)[C@@H]1O [Example 44, (2S,3R,4R,5S,6R)-2-(4-Fluoro-3-((5-phenylthiazol-2-yl)methyl)phenyl)-6-(hydroxymethyl)tetralrydro-2H-pyran-3,4,5-triol] | 30.8 nM |
| OC[C@H]1O[C@@H](c2ccc(F)c(Cc3ncc(-c4ccc(F)cc4)s3)c2)[C@H](O)[C@@H](O)[C@@H]1O [Example 45, (2S,3R,4R,5S,6R)-2-(4-Fluoro-3-((5-(4-fluorophenyl)thiazol-2-yl)methyl)phenyl)-6-(hydroxymethyl)tetrahydro-2H-pyran-3,4,5-triol] | 47.7 nM |
| OC[C@H]1O[C@@H](c2ccc(Br)c(Cc3ncc(-c4ccco4)s3)c2)[C@H](O)[C@@H](O)[C@@H]1O [Example 46, (2S,3R,4R,5S,6R)-2-(4-Bromo-3-((5-(furan-2-yl)thiazol-2-yl)methyl)phenyl)-6-(hydroxymethyl)-tetrahydro-2H-pyran-3,4,5-triol] | 1.89 nM |
| OC[C@H]1O[C@@H](c2ccc(C(F)(F)F)c(Cc3ncc(-c4cccs4)s3)c2)[C@H](O)[C@@H](O)[C@@H]1O [Example 49, (2R,3S,4R,5R,6S)-2-(Hydroxymethyl)-6-(3-((5-(thiophen-2-yl)thiazol-2-yl)methyl)-4-(trifluoromethyl)phenyl)tetrahydro-2H-pyran-3,4,5-triol] | 16.9 nM |
